Key:
[1] = target: crude intestinal α-glucosidase; assay: In vitro alpha-glucosidase inhibition (p-nitrophenyl-α-D-glucopyranoside); assay type: biochemical; conditions: ± SEM
Description: 3.6. Alpha-glucosidase inhibition protocol
α-Glucosidase inhibitory activities was determined as per reported methods. 10 μL of test samples (5 mg/mL DMSO solution) were altered in 100 μL of 100 mM-phosphate buffer (pH 6.8) in 96-well microplate and incubated with 50 μL of crude intestinal α-glucosidase for 5 min before 50μL substrate (5 mM, p-nitrophenyl-α-D-glucopyranoside prepared in same buffer) was […]
plus384) for 5 min after incubation with substrate. Individual blanks for test samples were prepared to correct background absorban ce where substrate was replaced with 50μL of buffer.
Control sample contained 10 μL DMSO in place of test samples. Percentage of enzyme inhibition was calculated as (1-B/A) x 100 where A represents absorbance of control without test samples, and B represents absorbance in presence of test samples. […]

| SMILES | IC50 [1] | melting point |
| --- | --- | --- |
| Cc1c(Br)c(/C=C2\S/C(=N\c3nccs3)NC2=O)cc2[nH]ccc12 [Compound 17] | 31.5 ± 0.5 µM | 242 to 245 °C |
| O=C1N/C(=N/c2nccs2)S/C1=C\c1cc(O)c2cc[nH]c2c1O [Compound 7] | 3.5 ± 0.8 µM | 238 to 241 °C |
| O=C1NC(=Nc2nccs2)SC1=Cc1cc2[nH]ccc2cc1F [Compound 5, (2Z,5E)-5-((5-fluoro-1H-indol-6-yl)methylene)-2-(thiazol-2-ylimino)hiazolidine-4-one] | – | 234 to 236 °C |
| O=C1N/C(=N/c2nccs2)S/C1=C\c1cc(Br)c2cc[nH]c2c1Cl [Compound 16] | 26.7 ± 0.3 µM | 240 to 242 °C |
| O=C1N/C(=N/c2nccs2)S/C1=C\c1cc(O)c2cc[nH]c2c1Cl [Compound 12] | 9.1 ± 0.3 µM | 236 to 239 °C |
| O=C1N/C(=N/c2nccs2)S/C1=C\c1cc2[nH]ccc2c(Cl)c1Cl [Compound 14] | 13.5 ± 0.4 µM | 231 to 233 °C |
| O=C1N/C(=N/c2nccs2)S/C1=C\c1cccc(O)c1 [Compound 19] | 19.8 ± 0.6 µM | – |
| N#Cc1cc(/C=C2\S/C(=N\c3nccs3)NC2=O)cc2[nH]ccc12 [Compound 10] | 24.6 ± 0.2 µM | 239 to 242 °C |
| COc1cc2cc[nH]c2c(O)c1/C=C1\S/C(=N\c2nccs2)NC1=O [Compound 8] | 8.7 ± 0.8 µM | 238 to 241 °C |
| O=C1N/C(=N/c2nccs2)S/C1=C\c1c(O)cc2cc[nH]c2c1Br [Compound 20, (2Z,5Z)-5-((7-bromo-5-hydroxy-1H-indol-6-yl)methylene)-2-(thiazol-2-ylimino)thiazolidin-4-one] | 29.4 ± 0.9 µM | 234 to 237 °C |
| O=C1N/C(=N/c2nccs2)S/C1=C\c1cc(C(F)(F)F)c2cc[nH]c2c1O [Compound 6] | 4.5 ± 0.7 µM | 238 to 240 °C |
| Cc1c(/C=C2\S/C(=N\c3nccs3)NC2=O)cc2[nH]ccc2c1Br [Compound 18] | 23.3 ± 0.4 µM | 239 to 242 °C |
| CN(C)c1cc(/C=C2\S/C(=N\c3nccs3)NC2=O)cc2[nH]ccc12 [Compound 9] | 23.2 ± 0.4 µM | 234 to 237 °C |
| O=C1N/C(=N/c2nccs2)S/C1=C\c1cc2[nH]ccc2c(Cl)c1Br [Compound 15] | 28.4 ± 0.8 µM | 241 to 243 °C |
| O=C1N/C(=N/c2nccs2)S/C1=C\c1cc2[nH]ccc2c(Cl)c1[N+](=O)[O-] [Compound 3] | 8.7 ± 0.2 µM | 235 to 237 °C |
| O=C1N/C(=N/c2nccs2)S/C1=C\c1c(O)cc2cc[nH]c2c1Cl [Compound 11] | 7.85 ± 0.2 µM | 236 to 239 °C |
| O=C1N/C(=N/c2nccs2)S/C1=C/c1cc(F)c2cc[nH]c2c1 [Compound 4, (2Z,5E)-5-((4-fluoro-1H-indol-6-yl)methylene)-2-(thiazol-2-ylimino)thiazolidin-4-one] | 2.7 ± 0.7 µM | 237 to 239 °C |

Reference: PMC9571711, “New Biologically Hybrid Pharmacophore Thiazolidinone-Based Indole Derivatives: Synthesis, In Vitro Alpha-Amylase and Alpha-Glucosidase along with Molecular Docking Investigations” (Molecules, 2022)
